target: human PHD2184-418 (Homo sapiens (Human), UniProt Q9GZT9); test: PHD2 inhibitory test (fluorescence polarization, binding between PHD2 and HIF-1α); conditions: human PHD2184-418, FITC-labeled HIF-1α556-574, 2 μM 2-oxoglutarate, 37° C. 60 minutes
Method: Test Example 1 PHD2 Inhibitory Test
(1) Expression and Preparation of Human PHD2184-418
Human PHD2184-418 containing amino acid residues 184 to 418 of the protein represented by CAC42509 (GenBank accession ID) was expressed and prepared by the following method.
An expression construct of human PHD2184-418 containing N-terminal histidine tag was introduced into pET-30a (+) vector, and the sequence was confirmed. This vector was introduced into BL21 (DE3) strain and cultured at 37° C. in LB medium containing antibiotics. After culturing, a cell lysis solution was added to the cells, and then the cells were disrupted by sonication. The disrupted suspension was centrifuged and the supernatant was purified by Ni column to give human PHD2184-418.
Human HIF-1α556-574 (FITC-labeled HIF-1α556-574), containing N-terminal FITC-Ahx, containing amino acid residues 556 to 574 (partial peptide) of HIF-1α was used as a substrate. Using FITC-labeled HIF-1α556-574, the competitive inhibition between 2-oxoglutarate and test compounds (PHD inhibitor) was evaluated based on the change in fluorescence polarization by the following method.
An enzyme (human PHD2184-418) and the substrate were diluted with an assay buffer (pH 7.4) containing 10 mM HEPES, 150 mM NaCl, 10 μM MnCl2-4H2O, 2 μM 2-oxoglutarate and 0.05% Tween-20. Test compounds were diluted with DMSO. Test compounds and human PHD2184-418 was added to the 384-well plate (Corning, black, opaque bottom) in advance. The reaction was started by the addition of FITC-labeled HIF-1α556-574. After incubating at 37° C. for 60 minutes, fluorescence polarization (excitation wavelength: 470 nm, fluorescence wavelength: 530 nm) was measured by PHERAstar FSX (BMG Labtech). Fluorescence polarization of each well was measured, and human PHD2 binding inhibitory activity of test compounds was calculated based on the value of test compound-free group.

Sequence of human PHD2184-418 (Q9GZT9 184-418): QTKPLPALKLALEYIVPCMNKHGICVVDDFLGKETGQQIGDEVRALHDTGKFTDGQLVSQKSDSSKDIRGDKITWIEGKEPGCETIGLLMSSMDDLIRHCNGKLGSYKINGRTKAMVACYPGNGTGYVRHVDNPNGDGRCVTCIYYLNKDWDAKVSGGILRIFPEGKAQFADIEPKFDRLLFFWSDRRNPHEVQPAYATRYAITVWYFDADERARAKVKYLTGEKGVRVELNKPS

First: COC(=O)c1ccc(-c2ccc(-n3c(=O)n([C@@H]4CCN(Cc5nccn5C)C4)c4ncccc43)c(C)c2)cc1 [Example 38, Methyl (R)-3′-methyl-4′-(3-(1-((1-methyl-1H-imidazol-2-yl)methyl)pyrrolidin-3-yl)-2-oxo-2,3-dihydro-1H-imidazo[4,5-b]pyridin-1-yl)-[1,1′-biphenyl]-4-carboxylate]
Second: Cc1cc(-c2ccc(C(=O)O)cc2)ccc1-n1c(=O)n([C@@H]2CCN(Cc3nccn3C)C2)c2ncccc21 [Example 48, (R)-3′-Methyl-4′-(3-(1-((1-methyl-1H-imidazol-2-yl)methyl)pyrrolidin-3-yl)-2-oxo-2,3-dihydro-1H-imidazo[4,5-b]pyridin-1-yl)-[1,1′-biphenyl]-4-carboxylic acid]
The IC50 of the first is 13-fold higher: 4630 nM for the first, 350 nM for the second. The second is the more potent here.

First: Cn1ccnc1CN1CC[C@H](n2c(=O)n(-c3ccc(-c4ccc(O)c(C(=O)O)c4)cc3)c3cccnc32)C1 [Example 42, (S)-4-Hydroxy-4′-(3-(1-((1-methyl-1H-imidazol-2-yl)methyl)pyrrolidin-3-yl)-2-oxo-2,3-dihydro-1H-imidazo[4,5-b]pyridin-1-yl)-[1,1′-biphenyl]-3-carboxylic acid]
Second: Cn1ccnc1CN1CC[C@H](n2c(=O)n(-c3ccc(-c4ccc(C(=O)O)cc4O)cc3)c3cccnc32)C1 [Example 44, (S)-2-Hydroxy-4′-(3-(1-((1-methyl-1H-imidazol-2-yl)methyl)pyrrolidin-3-yl)-2-oxo-2,3-dihydro-1H-imidazo[4,5-b]pyridin-1-yl)-[1,1′-biphenyl]-4-carboxylic acid]
The IC50 of the first is 3-fold lower: 320 nM for the first, 970 nM for the second. The first is the more potent here.

First: Cc1cc(C(=O)O)ccc1-c1ccc(-n2c(=O)n([C@H]3CCN(Cc4ncc(C(=O)O)n4C)C3)c3ncccc32)cn1 [Example 50, (S)-2-((3-(1-(6-(4-Carboxy-2-methylphenyl)pyridin-3-yl)-2-oxo-1,2-dihydro-3H-imidazo[4,5-b]pyridin-3-yl)pyrrolidin-1-yl)methyl)-1-methyl-1H-imidazole-5-carboxylic acid]
Second: Cc1ccc(-n2c(=O)n([C@H]3CCN(Cc4ncc(C(=O)O)n4C)C3)c3ncccc32)cc1 [Example 58, (S)-1-Methyl-2-((3-(2-oxo-1-(p-tolyl)-1,2-dihydro-3H-imidazo[4,5-b]pyridin-3-yl)pyrrolidin-1-yl)methyl)-1H-imidazole-5-carboxylic acid]
The IC50 of the first is 7.3-fold lower: 140 nM for the first, 1020 nM for the second.

`O=C(O)c1ccnc(CN2CC[C@H](n3c(=O)n(-c4ccc(-c5ccc(O)c(C(=O)O)c5)c(O)c4)c4cccnc43)C2)c1` [Example 51, (S)-2-((3-(1-(3′-Carboxy-2,4′-dihydroxy-[1,1′-biphenyl]-4-yl)-2-oxo-1,2-dihydro-3H-imidazo[4,5-b]pyridin-3-yl)pyrrolidin-1-yl)methyl)isonicotinic acid] and `O=C(O)c1ccnc(CN2CC[C@H](n3c(=O)n(-c4ccc(-c5ccc(O)c(C(=O)O)c5)cc4O)c4cccnc43)C2)c1` [Example 53, (S)-2-((3-(1-(3′-Carboxy-3,4′-dihydroxy-[1,1′-biphenyl]-4-yl)-2-oxo-1,2-dihydro-3H-imidazo[4,5-b]pyridin-3-yl)pyrrolidin-1-yl)methyl)isonicotinic acid] are the same in IC50: 140 nM for the first, 140 nM for the second.

Going from `O=C(O)c1ccnc(CN2CC[C@H](n3c(=O)n(-c4ccc(-c5ccc(O)c(C(=O)O)c5)nc4)c4cccnc43)C2)c1` [Example 52, (S)-2-((3-(1-(6-(3-Carboxy-4-hydroxyphenyl)pyridin-3-yl)-2-oxo-1,2-dihydro-3H-imidazo[4,5-b]pyridin-3-yl)pyrrolidin-1-yl)methyl)isonicotinic acid] to `Cn1c(C(=O)O)cnc1CN1CC[C@H](n2c(=O)n(-c3cccc(-c4ccccc4)c3)c3cccnc32)C1` [Example 54, (S)-2-((3-(1-([1,1′-Biphenyl]-3-yl)-2-oxo-1,2-dihydro-3H-imidazo[4,5-b]pyridin-3-yl)pyrrolidin-1-yl)methyl)-1-methyl-1H-imidazole-5-carboxylic acid], the IC50 rises from 280 nM to 770 nM (2.8-fold).

Compared with `CN(C)c1ccc(-n2c(=O)n([C@H]3CCN(Cc4ncc(C(=O)O)n4C)C3)c3ncccc32)cc1` [Example 55, (S)-2-((3-(1-(4-(Dimethylamino)phenyl)-2-oxo-1,2-dihydro-3H-imidazo[4,5-b]pyridin-3-yl)pyrrolidin-1-yl)methyl)-1-methyl-1H-imidazole-5-carboxylic acid], `Cn1c(C(=O)O)cnc1CN1CC[C@H](n2c(=O)n(-c3ccc(Cl)cc3)c3cccnc32)C1` [Example 59, (S)-2-((3-(1-(4-Chlorophenyl)-2-oxo-1,2-dihydro-3H-imidazo[4,5-b]pyridin-3-yl)pyrrolidin-1-yl)methyl)-1-methyl-1H-imidazole-5-carboxylic acid] is 2.7-fold lower in IC50: 490 nM for the first, 180 nM for the second. The second is the more potent here.

First: Cn1c(C(=O)O)cnc1CN1CC[C@H](n2c(=O)n(-c3ccc(Oc4ccccc4)cc3)c3cccnc32)C1 [Example 56, (S)-1-Methyl-2-((3-(2-oxo-1-(4-phenoxyphenyl)-1,2-dihydro-3H-imidazo[4,5-b]pyridin-3-yl)pyrrolidin-1-yl)methyl)-1H-imidazole-5-carboxylic acid]
Second: Cn1c(C(=O)O)cnc1CN1CC[C@H](n2c(=O)n(-c3ccc(Cc4ccccc4)cc3)c3cccnc32)C1 [Example 57, (S)-2-((3-(1-(4-Benzylphenyl)-2-oxo-1,2-dihydro-3H-imidazo[4,5-b]pyridin-3-yl)pyrrolidin-1-yl)methyl)-1-methyl-1H-imidazole-5-carboxylic acid]
The IC50 of the first is 1.7-fold lower: 410 nM for the first, 710 nM for the second.

First: CSc1ccc(-n2c(=O)n([C@H]3CCN(Cc4ncc(C(=O)O)n4C)C3)c3ncccc32)cc1 [Example 60, (S)-1-Methyl-2-((3-(1-(4-(methylthio)phenyl)-2-oxo-1,2-dihydro-3H-imidazo[4,5-b]pyridin-3-yl)pyrrolidin-1-yl)methyl)-1H-imidazole-5-carboxylic acid]
Second: Cn1c(C(=O)O)cnc1CN1CC[C@H](n2c(=O)n(-c3ccc(C#N)cc3)c3cccnc32)C1 [Example 64, (S)-2-((3-(1-(4-Cyanophenyl)-2-oxo-1,2-dihydro-3H-imidazo[4,5-b]pyridin-3-yl)pyrrolidin-1-yl)methyl)-1-methyl-1H-imidazole-5-carboxylic acid]
The IC50 of the first is 13-fold lower: 590 nM for the first, 7890 nM for the second. The first is the more potent here.

`Cn1c(C(=O)O)cnc1CN1CC[C@H](n2c(=O)n(-c3ccc(OC(F)(F)F)cc3)c3cccnc32)C1` [Example 62, (S)-1-Methyl-2-((3-(2-oxo-1-(4-(trifluoromethoxy)phenyl)-1,2-dihydro-3H-imidazo[4,5-b]pyridin-3-yl)pyrrolidin-1-yl)methyl)-1H-imidazole-5-carboxylic acid] and `Cn1c(C(=O)O)cnc1CN1CC[C@H](n2c(=O)n(-c3ccc(C(F)(F)F)cc3)c3cccnc32)C1` [Example 63, (S)-1-Methyl-2-((3-(2-oxo-1-(4-(trifluoromethyl)phenyl)-1,2-dihydro-3H-imidazo[4,5-b]pyridin-3-yl)pyrrolidin-1-yl)methyl)-1H-imidazole-5-carboxylic acid] are within 1.5-fold of each other in IC50: 1850 nM for the first, 1920 nM for the second.

`Cn1c(C(=O)O)cnc1CN1CC[C@H](n2c(=O)n(-c3ccc([N+](=O)[O-])cc3)c3cccnc32)C1` [Example 65, (S)-1-Methyl-2-((3-(1-(4-nitrophenyl)-2-oxo-1,2-dihydro-3H-imidazo[4,5-b]pyridin-3-yl)pyrrolidin-1-yl)methyl)-1H-imidazole-5-carboxylic acid] showed an IC50 of 2400 nM.
